Assay results as given in patent US9512152B2, “Phospholipid compound containing unsaturated fatty acid derivative having cyclopropane ring” (NISHIZAKI BIOINFORMATION RESEARCH INSTITUTE, priority 2013, dated 2016).

Key:
[1] = induced by scopolamine; non-patent documents 1, 2; cited from earlier work
[2] = patent document 2; cited from earlier work
[3] = system: 3T3L1-GLUT4myc adipocytes; assay: Analysis of GLUT4 trafficking (cellular membrane transport of GLUT4); assay type: cell-based; settings: 1 μM, 20 min, FIG. 7
Protocol: 3T3L1-GLUT4myc fibroblast strain expressing GLUT4myc was used. The cells are constructed by inserting human c-MYC epitope (14 amino acids) into the first ectodomain. The cells were cultured in Dulbecco's Modified Eagles Medium (DMEM) added with 10% (v/v) bovine serum, penicillin (final concentration, 100 U/ml) and streptomycin (final concentration, 0.1 mg/ml) in a humid environment under 5% CO2 and 95% air at 37° C. When the cells reached confluence (day 0), the medium was exchanged with DMEM added with 10% (v/v) fetal bovine serum (FBS), 1 μM dexamethasone, 0.5 mM 3-isobutyl-methyl-xanthine and 0.1 mg/ml insulin to allow for differentiation from fibroblast into adipocyte. The medium was exchanged with DMEM added with 10% (v/v) FBS on day 3, day 7 and day 11. On day 14, the cells were used for the experiment.
3T3L1-GLUT4myc adipocytes were incubated in Krebs-Ringer-HEPES buffer [136 mM NaCl, 4.7 mM KCl, 1.25 mM CaCl2, 1.25 mM MgSO4 and 20 mM HEPES, pH 7.5] containing 0.2% (w/v) bovine serum albumin and added with 10 mM glucose at 37° C. for 1 hr. The cells were incubated in the presence or absence of insulin, phospholipid or a derivative thereof for 20 min. Then, the cells were homogenized by sonication in an ice-cooled mitochondria buffer containing 1% (v/v) protease inhibitor cocktail [210 mM mannitol, 70 mM sucrose, and 1 mM ethylenediaminetetraacetic acid (EDTA), 10 mM HEPES, pH 7.5]. Sequentially, the homogenate was centrifuged at 4° C. for 5 min at 3,000 rpm. The supernatant was further centrifuged at 4° C. for 15 min at 11,000 rpm. […] The protein concentration of each fraction was measured using BCA protein assay kit (Thermo Fisher Scientific, Waltham, Mass., USA). […] The immunoreactivity was detected using ECL kit (Invitrogen), and visualized using a chemical luminescence detection system (chemiluminescence detection system; GE Healthcare, Piscataway, N.J., USA). The signal density was measured using an image analysis software (Image Gauge software; GE Healthcare).

synapse transmission = settings: patent document 1; cited from earlier work

CCCCCCCC/C=C\CCCCCCCC(=O)O[C@H](COC(=O)CCCCCCCCCCCCCCC)COP(=O)([O-])OCC[N+](C)(C)C [1-palmitoyl-2-oleoyl-sn-glycero-3-phosphocholine]
Improvement of spatial learning disorder and memory disorder [1]: improve spatial learning disorder and memory disorder induced by scopolamine

CCCCC/C=C/C/C=C/CCCCCCCC(=O)OCC(COP(=O)(O)OCCN)OC(=O)CCCCCCC/C=C/C/C=C/CCCCC (centres unmarked) [dilinoleoyl•phosphatidylethanolamine]
Cell death induction suppressive activity / endoplasmic reticulum stress suppressive activity [2]: cell death induction suppressive activity, particularly, endoplasmic reticulum stress suppressive activity

CCCCC/C=C\C/C=C\CCCCCCCC(=O)OC[C@H](COP(=O)([O-])OCC[N+](C)(C)C)OC(=O)CCCCCCC/C=C\C/C=C\CCCCC [1,2-dilinoleoyl-sn-glycero-3-phosphocholine]
Improvement of spatial learning disorder and memory disorder [1]: improve spatial learning disorder and memory disorder induced by scopolamine

insulin: insulin, comparison treatment in the GLUT4 trafficking analysis [reference compound]
Promotion of cellular membrane transport of GLUT4 [3]: an action to promote cellular membrane transport of GLUT4

CCCCCC1CC1CC1CC1CCCCCCCC(=O)O (centres unmarked) [DCP-LA, 8-[2-(2-Pentyl-cyclopropylmethyl)-cyclopropyl]-octanoic acid]
Enhancement of synapse transmission (LTP-like) (synapse transmission): can maintain stable LTP (long-teLm potentiation)-like enhancement of synapse transmission
